Measured values as given in patent US7718663B2, “Quinazoline derivatives and medicaments” (Nippon Shinyaku Co., Ltd., priority 2002, dated 2010).
Structures can show the parent of a compound that is named as a salt.

Key:
[1] = system: ICR male mice; assay: Mouse eye-scratching behavior induced by serotonin; assay type: in vivo; conditions: 0.5% test compound, 10 μl dropped into eye five minutes before 1% serotonin; counted for 10 minutes
Protocol: Effect on Mouse Eye-scratching Behavior Induced by Serotonin
After dropping 10 μl of 1% serotonin hydrochloride (hereinafter referred to as serotonin) into right eye of ICR male mice (4 to 6 weeks old), the number of eye-scratcing behavior induced by dropping of serotonin was measured for 10 minutes.
As the test compound, inventive compounds of Example 1, Example 2, Example 3, Example 6, Example 12, Example 29, Example 52, Example 364, Example 381 and Example 383 were used. Five minutes before dropping serotonin, 10 μl of each test compound was dropped. Distilled water as a solvent of the test compound was dropped as a control group.

[2] = target: T1, human nociceptin receptor (Homo sapiens, UniProt P41146); assay: Nociceptin receptor binding assay ([3H]nociceptin); conditions: cell membrane of human nociceptin receptor-expressing cell, 0.08 nM [3H]nociceptin, 25° C. 60 minutes; read-out: Affinity for nociceptin receptors Ki value
T1 construct: expressed in transfected cells
Protocol: Nociceptin Receptor Binding Assay
A cell membrane suspension obtained from a human nociceptin receptor-expressing cell was prepared so that it contained 5 to 10 μg/mL of the membrane protein in a Tris buffer [50 mM Tris-HCl (pH7.8), 5 mM MgCl2, 1 mM EGTA [Ethylene Glycol Bis(β-aminoethylether)-N,N,N′,N′-tetraacetic Acid], 0.1% BSA (Bovine Serum Alubumin)]. To this, [^3H]nociceptin (diluted at the final concentration of 0.08 nM with the Tris buffer) and each test compound was added and the mixture was incubated at 25° C. for 60 minutes. Using a cell harvester and a washing solution [50 mM Tris-HCl (pH7.8), 4° C.], the membrane was recovered onto a GF/B filter which had been pretreated with 0.3% PEI (polyethylenimine), which was then washed further 3 times. The filter was transferred to a vial, to which a scintillator was added, and the radioactivity was measured using a liquid scintillation counter. Noted that a non-specific binding was regarded as a binding in the presence of 10 μM nociceptin, and a specific binding was obtained by subtracting the non-specific binding from the total binding. From a ratio of binding inhibition in the presence of the tested substance, an IC50 value was obtained, and was then used together with the Kd value for [^3H]nociceptin to calculate the Ki value for the tested substance.

[3] = target: T2, rat μ opioid receptor (Rattus norvegicus, UniProt P33535); assay: μ opioid receptor binding assay ([3H]diprenorphine); conditions: rat μ opioid receptor-expressing cell membrane, 0.5 nM [3H]diprenorphine, 25° C. 60 minutes; read-out: Affinity for μ receptors Ki value
T2 construct: expressed in transfected cells
Protocol: μ Opioid Receptor Binding Assay
A rat μ opioid receptor-expressing cell membrane preparation was prepared so that it contained 8.5 μg/mL of the membrane protein in a Tris buffer [50 mM Tris-HCl (pH7.8), 5 mM MgCl2, 1 mM EGTA, 0.1% BSA]. To this, [^3H]diprenorphine (diluted at the final concentration of 0.5 nM with the Tris buffer) and each test compound was added and the mixture was incubated at 25° C. for 60 minutes. Using a cell harvester and a washing solution [50 mM Tris-HCl (pH7.8), 4° C.], the membrane was recovered onto a GF/B filter which had been pretreated with 0.3% PEI, which was then washed further 3 times. The filter was transferred to a vial, to which a scintillator was added, and the radioactivity was measured using a liquid scintillation counter. Noted that a non-specific binding was regarded as a binding in the presence of […], and a specific binding was obtained by subtracting the non-specific binding from the total binding. From a ratio of binding inhibition in the presence of the tested substance, an IC50 value was obtained, and was then used together with the Kd value for [^3H]diprenorphine to calculate the Ki value for the tested substance.

T2 sequence (P33535 whole entry): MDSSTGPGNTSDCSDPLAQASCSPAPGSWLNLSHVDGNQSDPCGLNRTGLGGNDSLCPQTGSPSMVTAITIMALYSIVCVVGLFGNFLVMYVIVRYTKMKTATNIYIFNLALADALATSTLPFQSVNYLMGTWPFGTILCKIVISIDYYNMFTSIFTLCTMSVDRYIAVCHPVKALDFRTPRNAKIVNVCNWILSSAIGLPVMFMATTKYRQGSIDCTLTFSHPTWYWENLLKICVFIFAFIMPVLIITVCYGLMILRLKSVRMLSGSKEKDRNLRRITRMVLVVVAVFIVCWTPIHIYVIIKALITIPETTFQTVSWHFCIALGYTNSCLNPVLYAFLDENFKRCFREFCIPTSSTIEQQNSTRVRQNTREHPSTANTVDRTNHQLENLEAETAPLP
T1 sequence (P41146 whole entry): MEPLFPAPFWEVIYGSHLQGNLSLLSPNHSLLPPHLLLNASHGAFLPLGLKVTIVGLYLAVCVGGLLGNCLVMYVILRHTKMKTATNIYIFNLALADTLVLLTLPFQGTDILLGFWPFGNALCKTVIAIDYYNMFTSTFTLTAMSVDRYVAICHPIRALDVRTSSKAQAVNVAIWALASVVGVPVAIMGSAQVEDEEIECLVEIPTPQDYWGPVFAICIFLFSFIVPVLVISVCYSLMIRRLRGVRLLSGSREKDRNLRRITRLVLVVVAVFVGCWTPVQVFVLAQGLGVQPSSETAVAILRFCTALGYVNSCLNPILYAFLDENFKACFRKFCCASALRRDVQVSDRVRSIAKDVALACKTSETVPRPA

SMILES: Cc1ccc2nc(C(=O)NC3CCCCCC3)nc(N[C@H]3CCCC[C@H]3NC(=N)N)c2c1.Cl.Cl [Example 364, 4-[((1S,2R)-2-{[amino(imino)methyl]amino}cyclohexyl)amino]-N-cycloheptyl-6-methylquinazoline-2-carboxamide dihydrochloride]
- Average number of scratching behavior [1]: 5.17

SMILES: COc1ccc2cc(C(=O)Nc3nc(N[C@H]4CCCC[C@H]4NC(=N)N)c4cc(C)ccc4n3)ccc2c1 [Example 7, N-{4-[((1S,2R)-2-{[amino(imino)methyl]amino}cyclohexyl)amino]-6-methylquinazolin-2-yl}-6-methoxy-2-naphthamide dihydrochloride]
- Ki [2]: 0.65 nM
- Ki [3]: 570 nM

SMILES: Cc1ccc2nc(C(=O)NCCc3ccsc3)nc(N[C@H]3CCCC[C@H]3NC(=N)N)c2c1.Cl.Cl [Example 381, 4-[((1S,2R)-2-{[amino(imino)methyl]amino}cyclohexyl)amino]-6-methyl-N-[2-(3-thienyl)ethyl]quinazoline-2-carboxamide dihydrochloride]
- Average number of scratching behavior [1]: 5.00

SMILES: Cc1ccc2nc(C(=O)NCC(C)(C)C)nc(N[C@H]3CCCC[C@H]3NC(=N)N)c2c1.Cl.Cl [Example 29, 4-[((1S,2R)-2-{[amino(imino)methyl]amino}cyclohexyl)amino]-6-methyl-N-neopentylquinazoline-2-carboxamide dihydrochloride]
- Average number of scratching behavior [1]: 1.67

SMILES: COc1ccc(C(=O)Nc2nc(N[C@H]3CCCC[C@H]3NC(=N)N)c3cc(C)ccc3n2)cc1.Cl.Cl [Example 12, N-{4-[((1S,2R)-2-{[amino(imino)methyl]amino}cyclohexyl)amino]-6-methylquinazolin-2-yl}-4-methoxybenzamide dihydrochloride]
- Average number of scratching behavior [1]: 8.17
- Ki [2]: 0.57 nM
- Ki [3]: 680 nM

SMILES: Cc1ccc2nc(NC(=O)c3cc4ccccc4o3)nc(N[C@H]3CCCC[C@H]3NC(=N)N)c2c1.Cl.Cl [Example 3, N-{4-[((1S,2R)-2-{[amino(imino)methyl]amino}cyclohexyl)amino]-6-methylquinazolin-2-yl}-1-benzofuran-2-carboxamide dihydrochloride]
- Average number of scratching behavior [1]: 2.33
- Ki [2]: 0.14 nM
- Ki [3]: 260 nM

SMILES: Cc1ccc2nc(C(=O)NCC(C)C)nc(N[C@H]3CCCC[C@H]3NC(=N)N)c2c1.Cl.Cl [Example 383, 4-[((1S,2R)-2-{[amino(imino)methyl]amino}cyclohexyl)amino]-N-isobutyl-6-methylquinazoline-2-carboxamide dihydrochloride]
- Average number of scratching behavior [1]: 2.33

SMILES: COc1ccc(NC(=O)c2nc(N[C@H]3CCCC[C@H]3NC(=N)N)c3cc(C)ccc3n2)cc1.Cl.Cl [Example 2, 4-[((1S,2R)-2-{[amino(imino)methyl]amino}cyclohexyl)amino]-N-(4-methoxyphenyl)-6-methylquinazoline-2-carboxamide dihydrochloride]
- Average number of scratching behavior [1]: 7.25

SMILES: COc1ccc(C(=O)Nc2nc(N[C@H]3CCCC[C@H]3NC(=N)N)c3cc(C)ccc3n2)c(OC)c1.Cl.Cl [Example 6, N-{4-[((1S,2R)-2-{[amino(imino)methyl]amino}cyclohexyl)amino]-6-methylquinazolin-2-yl}-2,4-dimethoxybenzamide dihydrochloride]
- Average number of scratching behavior [1]: 2.38
- Ki [2]: 0.67 nM
- Ki [3]: 550 nM

SMILES: Cc1ccc2nc(C(=O)Nc3ccc(C)c(C)c3)nc(N[C@H]3CCCC[C@H]3NC(=N)N)c2c1.Cl.Cl [Example 52, 4-[((1S,2R)-2-{[amino(imino)methyl]amino}cyclohexyl)amino]-N-(3,4-dimethylphenyl)-6-methylquinazoline-2-carboxamide dihydrochloride]
- Average number of scratching behavior [1]: 4.50

SMILES: Cc1ccc2nc(NC(=O)c3cc4ccccc4s3)nc(N[C@H]3CCCC[C@H]3NC(=N)N)c2c1.Cl.Cl [Example 1, N-{4-[((1S,2R)-2-{[amino(imino)methyl]amino}cyclohexyl)amino]-6-methylquinazolin-2-yl}-1-benzothiophene-2-carboxamide dihydrochloride]
- Average number of scratching behavior [1]: 9.57
- Ki [2]: 0.15 nM
- Ki [3]: 180 nM
